Laboratory results taken from ChEMBL document CHEMBL1201862, “PubChem BioAssay data set” (2004).
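Method: 48-hour compound exposure of cells in 96-well plates, five concentrations, linear interpolation of endpoints. Abbreviation: GI50, concentration required for 50% inhibition of growth.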 Calls of active or inactive are those of the source. Cut-off read from the data, not from the text of the source: active = GI50 up to about 1.1 µM and inactive = higher.

Key:
Experiment in all cases: inhibition of tumour cell growth, NCI panel, 48 h
COLO 205 = tested on: COLO 205
SF-268 = tested on: SF-268
MDA-MB-231 = tested on: MDA-MB-231
MCF7 = tested on: MCF7
HOP-62 = tested on: HOP-62
MOLT-4 = tested on: MOLT-4
SR = tested on: SR
SNB-19 = tested on: SNB-19
RXF 393 = tested on: RXF 393
U-251 = tested on: U-251
SK-MEL-5 = tested on: SK-MEL-5
OVCAR-8 = tested on: OVCAR-8
NCI/ADR-RES = tested on: NCI/ADR-RES
SF-539 = tested on: SF-539
LOX IMVI = tested on: LOX IMVI
UACC-62 = tested on: UACC-62
DU-145 = tested on: DU-145
RPMI-8226 = tested on: RPMI-8226
A498 = tested on: A498
PC-3 = tested on: PC-3
HCT-15 = tested on: HCT-15
IGROV-1 = tested on: IGROV-1
HL-60 = tested on: HL-60
K562 = tested on: K562
CAKI-1 = tested on: CAKI-1
Malme-3M = tested on: Malme-3M
BT-549 = tested on: BT-549
NCI-H522 = tested on: NCI-H522
MDA-MB-435 = tested on: MDA-MB-435
SW-620 = tested on: SW-620
SK-MEL-28 = tested on: SK-MEL-28
MDA-N = tested on: MDA-N
SN12C = tested on: SN12C
786-0 = tested on: 786-0
OVCAR-3 = tested on: OVCAR-3
A549 = tested on: A549
SK-OV-3 = tested on: SK-OV-3
HOP-92 = tested on: HOP-92
ACHN = tested on: ACHN
OVCAR-5 = tested on: OVCAR-5
Hs-578T = tested on: Hs-578T
NCI-H23 = tested on: NCI-H23
HCC 2998 = tested on: HCC 2998
EKVX = tested on: EKVX
UO-31 = tested on: UO-31
HT-29 = tested on: HT-29
UACC-257 = tested on: UACC-257
M14 = tested on: M14
T47D = tested on: T47D
SF-295 = tested on: SF-295
SK-MEL-2 = tested on: SK-MEL-2
KM12 = tested on: KM12
HCT-116 = tested on: HCT-116
OVCAR-4 = tested on: OVCAR-4
SNB-75 = tested on: SNB-75
NCI-H460 = tested on: NCI-H460
NCI-H226 = tested on: NCI-H226
TK-10 = tested on: TK-10
CCRF-CEM = tested on: CCRF-CEM

With `CCOC(=O)c1cnccc1CC1(C#N)c2ccccc2C=CN1C(=O)c1ccccc1` (centres undefined) the GI50 (COLO 205) was 28.2 µM (inactive), the GI50 (SF-268) was 23.6 µM (inactive) and the GI50 (MDA-MB-231) was 25.5 µM (inactive). For the same compound, the GI50 (MCF7) was 39.2 µM (inactive), the GI50 (HOP-62) was 53.2 µM (inactive) and the GI50 (MOLT-4) was 15.5 µM (inactive). For the same compound, the GI50 (SR) was 26.8 µM (inactive), the GI50 (SNB-19) was 70 µM (inactive) and the GI50 (RXF 393) was 64.9 µM (inactive). For the same compound, the GI50 (U-251) was 37.3 µM (inactive), the GI50 (SK-MEL-5) was 15.3 µM (inactive) and the GI50 (OVCAR-8) was 16.2 µM (inactive). For the same compound, the GI50 (NCI/ADR-RES) was 27.7 µM (inactive), the GI50 (SF-539) was 30.1 µM (inactive) and the GI50 (LOX IMVI) was 24.1 µM (inactive). The GI50 (UACC-62) was 23.9 µM (inactive), the GI50 (DU-145) was 35.6 µM (inactive) and the GI50 (RPMI-8226) was 4.91 µM (inactive). The GI50 (A498) was 96.4 µM (inactive), the GI50 (PC-3) was 20.4 µM (inactive) and the GI50 (HCT-15) was 31 µM. For the same compound, the GI50 (IGROV-1) was 17.3 µM (inactive), the GI50 (HL-60) was 18.5 µM (inactive) and the GI50 (K562) was 6.93 µM (inactive). For the same compound, the GI50 (CAKI-1) was 27.2 µM (inactive), the GI50 (Malme-3M) was 6.17 µM (inactive) and the GI50 (BT-549) was 51.6 µM (inactive). The GI50 (NCI-H522) was 18.6 µM (inactive), the GI50 (MDA-MB-435) was 35.6 µM (inactive) and the GI50 (SW-620) was 47.3 µM (inactive). For the same compound, the GI50 (SK-MEL-28) was 58.2 µM (inactive), the GI50 (MDA-N) was 18.1 µM (inactive) and the GI50 (SN12C) was 29 µM (inactive). The GI50 (786-0) was 29.7 µM (inactive), the GI50 (OVCAR-3) was 31.6 µM (inactive) and the GI50 (A549) was 34.4 µM (inactive). The GI50 (SK-OV-3) was 26.1 µM (inactive), the GI50 (HOP-92) was 37.5 µM (inactive) and the GI50 (ACHN) was 39.4 µM (inactive). For the same compound, the GI50 (OVCAR-5) was 80.2 µM (inactive), the GI50 (Hs-578T) was 13 µM (inactive) and the GI50 (NCI-H23) was 32.5 µM (inactive). The GI50 (HCC 2998) was 30.3 µM (inactive), the GI50 (EKVX) was 36.5 µM (inactive) and the GI50 (UO-31) was 27.2 µM (inactive). The GI50 (HT-29) was 12.3 µM (inactive), the GI50 (UACC-257) was 34.7 µM (inactive) and the GI50 (M14) was 24.3 µM (inactive). The GI50 (T47D) was 24.4 µM (inactive), the GI50 (SF-295) was 53.6 µM (inactive) and the GI50 (SK-MEL-2) was 21.6 µM (inactive). The GI50 (KM12) was 13.3 µM (inactive), the GI50 (HCT-116) was 29.2 µM (inactive) and the GI50 (OVCAR-4) was 21.7 µM (inactive). For the same compound, the GI50 (SNB-75) was 12.9 µM (inactive), the GI50 (NCI-H460) was 23.4 µM (inactive) and the GI50 (NCI-H226) was 43.9 µM (inactive). For the same compound, the GI50 (TK-10) was 37.5 µM (inactive) and the GI50 (CCRF-CEM) was 40.3 µM (inactive).
